# Data as given in US20240358659A1, “Uses of Propranolol for Managing Viral Infections” (Emory University, priority 2021, published 2024).
# What was measured:
# SARS-CoV-2 [1] = assay: viral load reduction assay in human lung epithelial (Calu) cells (RT-qPCR of released genome copies); format: cell-based; settings: MOI 1, 150 uM, 16 h pi
# SARS-CoV-2 [2] = assay: time of addition assay in Vero cells, plaque assay; format: cell-based; settings: infectious particles by plaque assay at 16 h pi
# SARS-CoV-2 [3] = settings: incubation of SARS-CoV-2 with compound for 1 hr at 37° C., plaque assay
# SARS-CoV-2 [4] = assay: viral load reduction assay in Vero E6 cells (RT-qPCR of released genome copies); format: cell-based
smiles,measurement,setting,value
"CC(C)NC[C@@H](O)COc1cccc2ccccc12 [R-propranolol, (R)-(+)-1-(isopropylamino)-3-(naphthalen-1-yloxy)propan-2-ol]",reduction in extracellular SARS-CoV-2 genome copies,SARS-CoV-2 [1],about 1.5 log
same,reduction of viral load by time of addition,SARS-CoV-2 [2],highest reduction of viral load upon pre-treatment
same,reduction of infectivity of virus particles (virucidal activity),SARS-CoV-2 [3],does not reduce infectivity of virus particles
same,efficacy in viral load reduction compared with remdesivir,SARS-CoV-2 [4]; 25 uM,approximately the same efficacy as remdesivir
same,reduction in extracellular SARS-CoV-2 genome copies,"SARS-CoV-2 [4]; MOI 1, 50 uM, 16 h post-infection",~2.5 log
